{
  "source": "ChEMBL document CHEMBL1201862",
  "about": "“PubChem BioAssay data set” (2004)",
  "key": {"[1]": {"assay": "Luminescence Cell-Based Dose Response HTS to Identify Inhibitors of 5'UTR Stem-Loop Driven Prion Protein mRNA Translation in H4 Neuroglioblastoma Cells. [Related pubchem assays: 1827 (Project Summary), 1813 (Primary HTS)]", "assay_type": "functional"}, "[2]": {"assay": "alpha-synuclein stem-loop luciferase translation blockers – H4 neuroglioma cells, luminescence, confirmation (AID 1988)", "assay_type": "functional, cell-based"}, "[3]": {"biological_target": "Peroxisome proliferator-activated receptor gamma/Nuclear receptor corepressor 2 (Homo sapiens, UniProt P37231+Q9Y618)", "sequence (P37231 whole entry)": "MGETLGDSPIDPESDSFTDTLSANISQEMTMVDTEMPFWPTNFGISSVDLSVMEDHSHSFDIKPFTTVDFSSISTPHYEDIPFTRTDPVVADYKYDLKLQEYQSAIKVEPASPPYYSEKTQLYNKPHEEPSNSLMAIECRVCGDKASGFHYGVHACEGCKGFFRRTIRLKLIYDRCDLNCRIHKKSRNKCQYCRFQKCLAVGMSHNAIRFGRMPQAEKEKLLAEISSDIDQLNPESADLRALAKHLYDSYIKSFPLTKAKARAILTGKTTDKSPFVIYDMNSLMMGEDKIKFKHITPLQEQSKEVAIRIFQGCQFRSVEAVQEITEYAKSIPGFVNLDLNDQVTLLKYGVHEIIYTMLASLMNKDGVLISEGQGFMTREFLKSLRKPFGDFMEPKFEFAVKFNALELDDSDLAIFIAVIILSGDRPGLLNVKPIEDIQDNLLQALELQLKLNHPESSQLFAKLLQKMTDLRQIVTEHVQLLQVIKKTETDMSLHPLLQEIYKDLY", "sequence (Q9Y618 whole entry)": "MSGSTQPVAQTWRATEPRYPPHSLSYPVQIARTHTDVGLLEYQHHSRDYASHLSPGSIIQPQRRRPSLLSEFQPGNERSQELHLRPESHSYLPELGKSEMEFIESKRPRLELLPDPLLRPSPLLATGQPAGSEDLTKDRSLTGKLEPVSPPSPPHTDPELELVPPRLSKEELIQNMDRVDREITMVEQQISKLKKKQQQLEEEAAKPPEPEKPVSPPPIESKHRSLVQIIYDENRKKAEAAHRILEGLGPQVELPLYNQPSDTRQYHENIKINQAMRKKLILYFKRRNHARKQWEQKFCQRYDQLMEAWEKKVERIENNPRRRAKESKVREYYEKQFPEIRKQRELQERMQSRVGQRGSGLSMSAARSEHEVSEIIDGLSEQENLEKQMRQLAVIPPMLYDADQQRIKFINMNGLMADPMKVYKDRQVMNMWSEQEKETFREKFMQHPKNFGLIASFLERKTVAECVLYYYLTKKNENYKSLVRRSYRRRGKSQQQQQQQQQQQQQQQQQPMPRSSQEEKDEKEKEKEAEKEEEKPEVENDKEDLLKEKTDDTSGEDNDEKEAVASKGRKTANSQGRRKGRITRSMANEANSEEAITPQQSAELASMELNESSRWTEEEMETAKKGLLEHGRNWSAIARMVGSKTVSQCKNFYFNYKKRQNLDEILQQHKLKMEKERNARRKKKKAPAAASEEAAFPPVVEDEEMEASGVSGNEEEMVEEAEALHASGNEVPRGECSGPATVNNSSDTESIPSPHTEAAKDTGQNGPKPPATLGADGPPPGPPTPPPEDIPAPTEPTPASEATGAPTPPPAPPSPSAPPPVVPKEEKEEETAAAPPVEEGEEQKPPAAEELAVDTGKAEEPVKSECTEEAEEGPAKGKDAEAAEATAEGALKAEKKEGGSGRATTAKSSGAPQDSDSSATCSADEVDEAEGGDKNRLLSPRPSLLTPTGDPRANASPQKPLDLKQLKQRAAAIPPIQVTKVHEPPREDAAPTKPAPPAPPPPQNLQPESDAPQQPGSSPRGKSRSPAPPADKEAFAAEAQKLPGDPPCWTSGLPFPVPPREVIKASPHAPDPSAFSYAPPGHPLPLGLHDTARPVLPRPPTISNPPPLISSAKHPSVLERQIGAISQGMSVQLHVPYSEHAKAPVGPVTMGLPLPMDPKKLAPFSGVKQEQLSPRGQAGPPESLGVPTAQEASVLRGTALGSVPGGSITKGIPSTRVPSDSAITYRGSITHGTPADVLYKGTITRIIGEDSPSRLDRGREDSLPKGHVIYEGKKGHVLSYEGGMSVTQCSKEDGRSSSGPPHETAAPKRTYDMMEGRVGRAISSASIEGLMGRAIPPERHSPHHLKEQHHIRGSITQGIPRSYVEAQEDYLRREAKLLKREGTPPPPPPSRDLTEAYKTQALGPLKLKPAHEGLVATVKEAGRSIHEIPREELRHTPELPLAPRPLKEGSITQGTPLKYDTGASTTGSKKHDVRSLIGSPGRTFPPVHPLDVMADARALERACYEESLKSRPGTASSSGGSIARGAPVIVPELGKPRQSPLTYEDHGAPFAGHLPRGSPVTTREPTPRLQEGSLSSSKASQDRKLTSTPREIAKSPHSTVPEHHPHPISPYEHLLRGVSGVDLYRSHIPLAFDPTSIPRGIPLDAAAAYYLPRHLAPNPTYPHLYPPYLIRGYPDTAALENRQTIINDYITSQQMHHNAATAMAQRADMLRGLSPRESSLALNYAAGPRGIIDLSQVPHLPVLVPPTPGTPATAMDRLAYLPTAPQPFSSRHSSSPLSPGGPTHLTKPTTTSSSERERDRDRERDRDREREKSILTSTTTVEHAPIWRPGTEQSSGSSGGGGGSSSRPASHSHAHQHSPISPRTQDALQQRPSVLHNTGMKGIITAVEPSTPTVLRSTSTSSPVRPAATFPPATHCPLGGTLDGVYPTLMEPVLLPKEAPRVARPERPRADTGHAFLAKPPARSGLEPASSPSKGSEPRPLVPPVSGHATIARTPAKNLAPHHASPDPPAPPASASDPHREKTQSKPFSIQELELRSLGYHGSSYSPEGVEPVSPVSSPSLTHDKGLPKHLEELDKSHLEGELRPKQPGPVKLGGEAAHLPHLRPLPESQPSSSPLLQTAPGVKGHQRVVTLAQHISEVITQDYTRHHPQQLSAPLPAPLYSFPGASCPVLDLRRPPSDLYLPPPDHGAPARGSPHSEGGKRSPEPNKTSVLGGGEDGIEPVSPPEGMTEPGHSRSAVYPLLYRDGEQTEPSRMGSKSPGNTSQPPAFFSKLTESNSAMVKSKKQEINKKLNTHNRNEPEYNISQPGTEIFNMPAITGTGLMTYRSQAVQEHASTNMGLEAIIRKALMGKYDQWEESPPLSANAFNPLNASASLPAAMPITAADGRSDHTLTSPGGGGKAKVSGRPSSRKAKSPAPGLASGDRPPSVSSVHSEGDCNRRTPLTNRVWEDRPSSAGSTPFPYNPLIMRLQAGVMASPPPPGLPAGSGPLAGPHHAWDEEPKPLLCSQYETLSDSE", "assay_type": "functional"}, "[4]": {"biological_target": "Transitional endoplasmic reticulum ATPase (Homo sapiens, UniProt P55072)", "sequence (P55072 whole entry)": "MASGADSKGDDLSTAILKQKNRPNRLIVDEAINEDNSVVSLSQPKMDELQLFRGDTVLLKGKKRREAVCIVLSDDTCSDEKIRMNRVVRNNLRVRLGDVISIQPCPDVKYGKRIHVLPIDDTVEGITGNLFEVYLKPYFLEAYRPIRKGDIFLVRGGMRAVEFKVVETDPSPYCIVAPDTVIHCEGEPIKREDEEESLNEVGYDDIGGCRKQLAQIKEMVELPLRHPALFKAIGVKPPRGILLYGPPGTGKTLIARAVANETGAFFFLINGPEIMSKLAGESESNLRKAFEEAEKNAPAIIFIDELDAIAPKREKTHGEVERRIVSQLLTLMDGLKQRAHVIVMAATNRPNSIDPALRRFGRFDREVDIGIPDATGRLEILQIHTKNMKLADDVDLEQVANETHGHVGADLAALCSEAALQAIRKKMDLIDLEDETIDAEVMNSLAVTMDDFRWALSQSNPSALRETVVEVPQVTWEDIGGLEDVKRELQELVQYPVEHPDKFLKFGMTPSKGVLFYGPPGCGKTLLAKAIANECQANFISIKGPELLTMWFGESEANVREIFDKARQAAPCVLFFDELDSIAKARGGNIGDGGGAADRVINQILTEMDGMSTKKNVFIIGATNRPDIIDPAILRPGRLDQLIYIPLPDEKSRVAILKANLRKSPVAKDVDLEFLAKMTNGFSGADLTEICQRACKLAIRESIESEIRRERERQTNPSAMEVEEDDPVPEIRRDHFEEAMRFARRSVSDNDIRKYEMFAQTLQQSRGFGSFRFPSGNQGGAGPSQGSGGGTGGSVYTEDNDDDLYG", "assay": "p97 ATPase inhibitors, dose response, biochemical (AID 1534)"}, "[5]": {"assay": "Intein inhibitors as potential Tuberculosis drugs, a cytotoxicity screen. [Related pubchem assays (depositor defined):AID2221, AID2223, AID434968, AID435010, AID449749, AID449750, AID489010]", "assay_type": "functional"}, "[6]": {"biological_target": "T1, Heat shock factor protein 1 (Mus musculus, UniProt P38532)", "T1 sequence (P38532 whole entry)": "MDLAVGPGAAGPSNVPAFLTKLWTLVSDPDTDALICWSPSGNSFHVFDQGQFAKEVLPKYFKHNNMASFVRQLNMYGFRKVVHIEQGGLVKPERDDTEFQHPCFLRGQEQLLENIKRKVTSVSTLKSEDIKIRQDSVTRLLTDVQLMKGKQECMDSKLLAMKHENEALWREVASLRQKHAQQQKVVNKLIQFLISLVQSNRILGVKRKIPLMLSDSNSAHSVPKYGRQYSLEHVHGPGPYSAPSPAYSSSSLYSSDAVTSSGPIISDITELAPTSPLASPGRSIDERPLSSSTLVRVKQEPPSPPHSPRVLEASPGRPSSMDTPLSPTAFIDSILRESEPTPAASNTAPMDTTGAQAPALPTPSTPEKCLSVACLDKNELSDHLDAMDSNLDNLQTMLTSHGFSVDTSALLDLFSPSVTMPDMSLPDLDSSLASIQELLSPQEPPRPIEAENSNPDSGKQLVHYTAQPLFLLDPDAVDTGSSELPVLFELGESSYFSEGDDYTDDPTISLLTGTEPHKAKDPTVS", "assay": "decrease of HSF1-responsive luciferase luminescence – cell-based, NIH3T3, dose retest, confirmation (AID 2382);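 further: NIH3T3 fibroblasts with HSF1-driven luciferase reporter stressed by proteasome inhibitor MG132; luminescence from HSF1-driven luciferase expression after 8 hours of MG132 stress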", "assay_type": "functional"}, "[7]": {"assay": "Trypanosoma cruzi growth suppression in host cells – NIH3T3 host cells, beta-gal luminescence, confirmation (AID 2044);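 further: intracellular parasites grown in NIH/3T3 mouse fibroblasts as host cells; luminescent beta-galactosidase reporter signal from transgenic T. cruzi replicating inside host cells; inhibitors lower the luminescence signal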", "assay_type": "functional, cell-based"}, "[8]": {"assay": "NIH3T3 cell viability loss – ATP luminescence, mouse fibroblasts, counter-screen, dose response (AID 2010);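 further: cells exposed to compound for about 90 hours before reading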", "assay_type": "functional, cell-based"}, "[9]": {"biological_target": "T2, Sentrin-specific protease 8 (Homo sapiens, UniProt Q96LD8)", "T2 sequence (Q96LD8 whole entry)": "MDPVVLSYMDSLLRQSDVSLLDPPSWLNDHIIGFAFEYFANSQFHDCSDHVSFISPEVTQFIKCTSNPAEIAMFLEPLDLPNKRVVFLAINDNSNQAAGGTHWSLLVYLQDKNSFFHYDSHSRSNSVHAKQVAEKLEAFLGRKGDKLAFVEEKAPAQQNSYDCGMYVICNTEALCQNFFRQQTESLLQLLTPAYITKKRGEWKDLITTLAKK", "assay": "inhibition of human SENP8 cleavage activity – biochemical, luminescence, SAR follow-up (AID 504501)", "assay_type": "functional"}, "[10]": {"biological_target": "T3, Sentrin-specific protease 6 (Homo sapiens, UniProt Q9GZR1)", "T3 sequence (Q9GZR1 whole entry)": "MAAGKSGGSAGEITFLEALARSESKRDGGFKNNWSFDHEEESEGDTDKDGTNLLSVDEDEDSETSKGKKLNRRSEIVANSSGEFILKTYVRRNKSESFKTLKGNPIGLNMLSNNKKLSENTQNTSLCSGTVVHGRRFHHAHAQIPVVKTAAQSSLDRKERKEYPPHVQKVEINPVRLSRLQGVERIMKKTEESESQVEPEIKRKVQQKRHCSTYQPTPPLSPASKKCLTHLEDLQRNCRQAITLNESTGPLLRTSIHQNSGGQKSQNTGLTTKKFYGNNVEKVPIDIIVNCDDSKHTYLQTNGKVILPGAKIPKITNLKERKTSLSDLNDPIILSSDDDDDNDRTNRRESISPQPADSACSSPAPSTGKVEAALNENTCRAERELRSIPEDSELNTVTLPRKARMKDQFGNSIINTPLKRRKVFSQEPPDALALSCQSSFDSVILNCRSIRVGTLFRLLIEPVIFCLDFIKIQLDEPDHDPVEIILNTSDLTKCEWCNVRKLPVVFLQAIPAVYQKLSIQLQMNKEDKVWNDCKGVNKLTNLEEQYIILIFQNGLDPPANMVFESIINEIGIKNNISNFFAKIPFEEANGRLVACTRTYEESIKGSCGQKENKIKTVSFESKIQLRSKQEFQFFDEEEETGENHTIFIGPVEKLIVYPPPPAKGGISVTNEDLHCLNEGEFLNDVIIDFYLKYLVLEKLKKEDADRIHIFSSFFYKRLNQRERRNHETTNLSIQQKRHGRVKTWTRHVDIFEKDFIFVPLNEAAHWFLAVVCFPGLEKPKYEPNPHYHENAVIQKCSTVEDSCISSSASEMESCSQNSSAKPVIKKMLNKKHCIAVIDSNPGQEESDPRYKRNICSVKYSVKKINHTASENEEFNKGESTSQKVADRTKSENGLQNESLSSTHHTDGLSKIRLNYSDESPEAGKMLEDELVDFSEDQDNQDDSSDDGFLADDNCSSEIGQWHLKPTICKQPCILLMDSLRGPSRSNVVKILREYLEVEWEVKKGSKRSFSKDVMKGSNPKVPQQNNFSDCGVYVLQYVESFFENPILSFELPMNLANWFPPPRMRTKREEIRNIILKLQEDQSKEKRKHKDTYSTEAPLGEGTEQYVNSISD", "assay": "SAR Analysis of small molecule inhibitors of Sentrin-specific protease 6 (SENP6) using a Luminescent assay. [Related pubchem assays (depositor defined):AID2582, AID2599]", "assay_type": "functional"}, "[11]": {"assay": "NIH-3T3 fibroblast cytotoxicity, dose response, cytotoxicity control, cell-based, fluorescence, Alamar Blue, secondary assay (AID 2327);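 further: NIH-3T3 mouse fibroblasts cultured with fluconazole at 8 µg/mL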", "assay_type": "functional"}, "[12]": {"assay": "cells", "assay_type": "functional, cell-based"}, "[13]": {"assay": "cells", "assay_type": "functional, cell-based", "remark": "listed apart in the source"}, "[14]": {"biological_target": "Serine/threonine-protein phosphatase (Candida dubliniensis (strain CD36 / CBS 7987 / NCPF 3949 / NRRLY-17841) (Yeast), UniProt B9W6M3)", "sequence (B9W6M3 whole entry)": "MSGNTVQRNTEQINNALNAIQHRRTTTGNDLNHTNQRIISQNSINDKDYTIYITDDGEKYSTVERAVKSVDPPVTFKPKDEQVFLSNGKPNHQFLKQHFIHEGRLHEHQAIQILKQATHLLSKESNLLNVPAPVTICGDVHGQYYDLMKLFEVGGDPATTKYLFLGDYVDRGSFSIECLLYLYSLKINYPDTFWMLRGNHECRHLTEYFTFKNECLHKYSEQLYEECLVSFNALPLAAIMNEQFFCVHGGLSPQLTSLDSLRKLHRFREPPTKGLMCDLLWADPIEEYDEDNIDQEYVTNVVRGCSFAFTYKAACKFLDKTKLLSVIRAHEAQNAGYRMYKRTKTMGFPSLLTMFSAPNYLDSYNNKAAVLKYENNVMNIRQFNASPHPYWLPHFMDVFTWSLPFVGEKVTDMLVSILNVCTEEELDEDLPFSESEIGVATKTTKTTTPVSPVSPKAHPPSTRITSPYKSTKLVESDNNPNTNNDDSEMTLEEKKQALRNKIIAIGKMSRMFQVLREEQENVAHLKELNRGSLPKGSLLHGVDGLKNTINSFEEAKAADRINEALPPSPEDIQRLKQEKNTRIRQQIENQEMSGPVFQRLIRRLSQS", "assay": "blockers of CaCl2-induced CDRE-lacZ signaling – S. cerevisiae, luminescence, secondary, dose response (AID 2388);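 further: yeast reporter cells carrying a calcineurin-responsive lacZ construct stimulated with calcium chloride; luminescent beta-galactosidase reporter signal in whole cells rather than isolated phosphatase activity; potency for inhibition where a drop in reporter signal means calcineurin blockade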", "assay_type": "functional, cell-based"}, "[15]": {"assay": "THP-1 cell cytotoxicity, dose response, cytotoxicity control for non-replicating M. tuberculosis project (AID 489025)", "assay_type": "functional"}, "[16]": {"assay": "HepG2 cell cytotoxicity, dose response, cytotoxicity control for non-replicating M. tuberculosis project (AID 489018)", "assay_type": "functional", "conditions": "Mycobacterium tuberculosis"}, "[17]": {"tested_on": "BJ", "assay": "growth inhibition of engineered Ras-driven BJ cells – cell-based, alamar blue fluorescence, cherrypicked samples, dose response (AID 2631);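 further: confirmatory dose-response assay in RAS-dependent BJ fibroblasts engineered with TERT, LT and ST, with cytotoxicity read by fluorescence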", "assay_type": "functional", "conditions": "Homo sapiens"}},
  "note": "Activity calls are given as the source filed them. For most assays here, no stated cut-off is given here; in the data, actives have a measured EC50 and inactives only a lower limit.",
  "data": [
    {"smiles": "Cn1nc(-c2ccc(Cl)cc2)nc2c(=O)n(C)c(=O)nc1-2", "values": [
      {"measurement": "EC50", "setting": "[1]", "value": "> 120 µM (not active)"},
      {"measurement": "EC50", "setting": "[2]", "value": "4.07 µM (active)"},
      {"measurement": "IC50", "setting": "[3]", "value": "> 4.43 µM (active)"},
      {"measurement": "IC50", "setting": "[4]", "value": "> 50 µM (not active)"},
      {"measurement": "CC50", "setting": "[5]", "value": "> 40 µM (active)"}
    ]},
    {"smiles": "SC1=Nc2ccccc2C1", "values": [
      {"measurement": "EC50", "setting": "[6]", "value": "0.79 µM (active)"},
      {"measurement": "EC50", "setting": "[7]", "value": "0.487 µM (active)"},
      {"measurement": "EC50", "setting": "[8]", "value": "15.8 µM (active)"}
    ]},
    {"smiles": "CCCCNc1cc(NC(C)=O)cc2cc(OC)c(OC)cc12", "values": [
      {"measurement": "IC50", "setting": "[9]", "value": "> 99 µM (inactive)"},
      {"measurement": "IC50", "setting": "[10]", "value": "82 µM (active)"}
    ]},
    {"smiles": "COc1ccc(C(NC(=O)C(C)C)c2ccc3cccnc3c2O)cc1", "note": "(configuration not stated)", "values": [
      {"measurement": "EC50", "setting": "[11]", "value": "40.1 µM (active)"},
      {"measurement": "EC50", "setting": "[12]", "value": "5.77 µM (active)"},
      {"measurement": "EC50", "setting": "[13]", "value": "> 350 µM (not active)"},
      {"measurement": "EC50", "setting": "[14]", "value": "> 180 µM (inactive)"}
    ]},
    {"smiles": "O=C(Cc1ccc([N+](=O)[O-])cc1)N/N=C/c1ccc([N+](=O)[O-])o1", "values": [
      {"measurement": "CC50", "setting": "[15]", "value": "6.26 µM (active)"},
      {"measurement": "CC50", "setting": "[16]", "value": "7.53 µM (active)"},
      {"measurement": "EC50", "setting": "[17]", "value": "7.85 µM (active)"}
    ]}
  ]
}
